Tested on: human myeloma cell line MM.1S
Assay: SILAC acetylated-lysine peptide profiling, HDAC inhibitor vs DMSO (light/heavy ratio)
Assay type: cell-based
Source text: An embodiment of the invention comprises utilizing the SILAC method in order to quantitate changes in protein expression between two or more populations of cells. The SILAC method is a technique based on mass spectrometry that detects differences in protein abundance among samples using non-radioactive isotopic labeling. The SILAC method is known in the art, and described in detail in Ong et al., “Stable Isotope Labeling by Amino Acids in Cell Culture, SILAC, as a Simple and Accurate Approach to Expression Proteomics”, Molecular & Cellular Proteomics, vol. 1, pp. 376-386 (2002), which is incorporated herein by reference in its entirety.
Briefly, the SILAC method involves growing two populations of cells in cell culture. The first population of cells is grown in growth media containing normal amino acids (“normal media”). The second population of cells is grown in media lacking a standard essential amino acid (such as lysine), but is then supplemented with a non-radioactive, isotopically labeled form of that essential amino acid (such as lysine labeled with ^13C atoms, rather than normal ^12C atoms), which is called “heavy media”. When the two populations of cells are each growing in the medium, they incorporate the amino acids into all of their proteins. The growth of cells maintained in the heavy media is no different from that in normal media. All peptides containing the heavy amino acids are heavier than their normal counterparts. The cells from each of the two populations of cells are lysed. The lysates from each of the two cell populations are then combined. The combined cell lysates are then analyzed by mass spectrometry. Pairs of chemically identical peptides of different stable isotope composition can be differentiated in a mass spectrometer due to their difference in mass. The ratio of peak intensities in the mass spectrum for such peptide pairs reflects the abundance ratio for the two proteins.
This example describes SILAC studies that were performed to compare the effects of three different HDAC inhibitors (Compound A, Compound B, and tubastatin A) to a control on a human multiple myeloma cell line. The HDAC inhibitors were also compared amongst themselves to determine differences in their effects.
A human myeloma cell line MM.1S was grown using either ^12C (light) or ^13C (heavy) lysine containing culture medium. The “heavy” cells were treated with DMSO as the control, and the “light” cells were treated with a single HDAC inhibitor at 37° C. for 6 hours. The heavy and light cells were lysed, and the lysates were mixed in 1:1 ratio and digested with the protease trypsin. The acetylated lysine containing peptides (due to the action of the HDAC inhibitor) in the digested peptide pool were captured by a non-specific anti-acetylated lysine antibody cocktail (the antibodies identify both light and heavy acetylated peptides), and subjected to mass spectrometry analysis in order to identify thousands of individual peptides.
Thousands of peptides were identified in pairs (^12C and ^13C) due to their known mass differences. The amino acid sequence and quantitative ratio (Light/Heavy) of a given peptide in two differentially treated cell lysates were then determined and annotated with their possible protein (gene) sources.
As stated above, three HDAC inhibitors (Compound A, Compound B, and Tubastatin A) were used. Thus, the SILAC method was performed three times, with a different HDAC inhibitor compared to a control each time. Accordingly, there are three pairs of quantitative data in the table below, i.e., Compound A:DMSO, Compound B:DMSO, and Tubastatin A:DMSO. A cut-off of 1.30 fold of change (increase or decrease) was then used to determine “changed” or “+” in the table, and any peptides with a fold of change less than 1.3 fold were determined to be “unchanged” or “0” in the table. Those peptides that were not identified were marked as “NA” in the table. […]

CN1CCc2c(c3ccccc3n2Cc2ccc(C(=O)NO)cc2)C1 [Tub A] was tested. Which “light to heavy ratio (L/H ratio) of acetylated peptide SNPSEVVEFTTCPDK(ac)PGIPVKPSVK (SEQ ID NO: 336)” value (Isoform 2 of Fibronectin type-III domain-containing protein 3A [507], FNDC3A, drug:DMSO) did it give?
The value was 0.00 log 2.

And the “light to heavy ratio (L/H ratio) of acetylated peptide LIAGNK(ac)PVSFLTAQQLQQLQQQGQATQVR (SEQ ID NO: 512)” value (Isoform 2 of Nuclear factor related to kappa-B-binding protein [1262], gene NFRKB, inhibitor:DMSO)?
Its value is 0.00 log 2.

What about the “light to heavy ratio (L/H ratio) of acetylated peptide YQQFK(ac)DFQR (SEQ ID NO: 258)” value (Isoform 2 of Spliceosome RNA helicase DDX39B [349], SNORD84, DDX39B, drug:DMSO) of the same compound?
The value was −0.38 log 2.

What about the “light to heavy ratio (L/H ratio), log 2 scale, acetylated peptide LEPLK(ac)PLK (SEQ ID NO: 772)” value (Isoform 3 of Proline-rich protein 12 [1223], gene PRR12, drug:DMSO) of the same compound?
The value was 0.00.

And the “light to heavy ratio (L/H ratio), log 2 scale, acetylated peptide DQTK(ac)SIVEK (SEQ ID NO: 810)” value (Isoform 3 of Reticulon-3 [217], gene RTN3, drug:DMSO)?
Its value is 0.00.

And the “light to heavy ratio (L/H ratio) of acetylated peptide VQDGLSDIAEK(ac)FLK (SEQ ID NO: 326)” value (Isoform 5 of Transcriptional regulator ATRX [812], ATRX, drug:DMSO)?
Its value is 0.00 log 2.

What about the “light to heavy ratio (L/H ratio) of acetylated peptide K(ac)SSETLR (SEQ ID NO: 601)” value (Isoform CNPI of 23-cyclic-nucleotide 3-phosphodiesterase [177], gene CNP, inhibitor:DMSO) of the same compound?
Its value is 0.00 log 2.

What about the “light to heavy ratio (L/H ratio) of acetylated peptide MVAAAK(ac)YAR (SEQ ID NO: 324)” value (Isoform Heart of ATP synthase subunit gamma mitochondrial [55], ATP5C1, drug:DMSO) of the same compound?
The value was 0.00 log 2.

What about the “light to heavy ratio (L/H ratio) of acetylated peptide VPNDK(ac)YYGAQTVR (SEQ ID NO: 625)” value (Isoform Mitochondrial of Fumarate hydratase mitochondrial [66], gene FH, inhibitor:DMSO) of the same compound?
The value was 0.00 log 2.

What about the “light to heavy ratio (L/H ratio) of acetylated peptide APQCLGK(ac)FIEIAAR (SEQ ID NO: 338)” value (Isoform Short of Heterogeneous nuclear ribonucleoprotein U [546], HNRNPU, drug:DMSO) of the same compound?
Its value is 0.00 log 2.

And the “light to heavy ratio (L/H ratio) of acetylated peptide LLEQYK(ac)EESK (SEQ ID NO: 302)” value (Isoform Short of Heterogeneous nuclear ribonucleoprotein U [651], HNRNPU, drug:DMSO)?
The value was −0.57 log 2.

What about the “light to heavy ratio (L/H ratio) of acetylated peptide, log 2 scale” value (K(ac)HPDASVNFSEFSK (SEQ ID NO: 164), Similar to nonhistone chromosomal protein HMG-1 [30], HMGB1P4) of the same compound?
Its value is −0.39.

And the “light to heavy ratio (L/H ratio) of acetylated peptide, log 2 scale” value (K(ac)TFEINPR (SEQ ID NO: 171), Endoplasmin [683], HSP90B1)?
The value was −0.73.

And the “light to heavy ratio (L/H ratio) of acetylated peptide, log 2 scale” value (K(ac)YEDICPSTHNMDVPNIK (SEQ ID NO: 152), Eukaryotic translation initiation factor 5A-2 [68], EIF5A2)?
The value was −0.56.

And the “light to heavy ratio (L/H ratio) of acetylated peptide, log 2 scale” value (KLPK(ac)NEPQNATGAPGR (SEQ ID NO: 198), Ras-related protein Rab-5C [184], RAB5C)?
The value was 0.38.

And the “light to heavy ratio (L/H ratio), log 2 scale, acetylated peptide (ac)ASPSLERPEK(ac)GAGK (SEQ ID NO: 801)” value (KRR1 small subunit processome component homolog [11], gene KRR1, drug:DMSO)?
The value was 0.00.

What about the “light to heavy ratio (L/H ratio) of acetylated peptide IVADK(ac)DYSVTANSK (SEQ ID NO: 317)” value (L-lactate dehydrogenase B chain [82], LDHB, drug:DMSO) of the same compound?
Its value is 0.51 log 2.

What about the “L/H ratio of acetylated peptide” value (LAK(ac)LSDGVAVLK (SEQ ID NO: 484), 60 kDa heat shock protein mitochondrial [396], HSPD1) of the same compound?
Its value is 0.00 log 2.

And the “light to heavy ratio (L/H ratio) of acetylated peptide, log 2 scale” value (LENK(ac)MEGIGLK (SEQ ID NO: 131), PRA1 family protein 3 [151], ARL6IP5)?
Its value is 0.67.

And the “light to heavy ratio (L/H ratio) of acetylated peptide, log 2 scale” value (LIK(ac)VHLDK (SEQ ID NO: 215), 40S ribosomal protein S7 [155], RPS7)?
The value was −0.50.

And the “light to heavy ratio (L/H ratio) of acetylated peptide, log 2 scale” value (LIYDTK(ac)GR (SEQ ID NO: 213), 40S ribosomal protein S4 X isoform [106], RPS4X)?
Its value is −0.40.

And the “L/H ratio of acetylated peptide IHLEIK(ac)QLNR (SEQ ID NO: 57)” value (LMAN1 [346], log 2 scale, drug vs DMSO)?
The value was −0.56.

And the “L/H ratio of acetylated peptide LYK(ac)EELEQTYHAK (SEQ ID NO: 4)” value (LMNB1 [261], log 2 scale, drug vs DMSO)?
Its value is 0.46.

What about the “L/H ratio of acetylated peptide LYKEELEQTYHAK(ac)LENAR (SEQ ID NO: 58)” value (LMNB1 [271], log 2 scale, drug vs DMSO) of the same compound?
The value was −0.73.

And the “light to heavy ratio (L/H ratio) of acetylated peptide, log 2 scale” value (LNEQK(ac)LAQLEEAK (SEQ ID NO: 133), ATP synthase subunit b mitochondrial [131], ATP5F1)?
The value was 0.72.

And the “L/H ratio of acetylated peptide GFGYK(ac)GSCFHR (SEQ ID NO: 59)” value (LOC390956 [71], log 2 scale, drug vs DMSO)?
Its value is −0.45.

And the “light to heavy ratio (L/H ratio) of acetylated peptide, log 2 scale” value (LSLDK(ac)VFR (SEQ ID NO: 226), Stomatin-like protein 2 [145], STOML2)?
The value was −0.41.

And the “light to heavy ratio (L/H ratio) of acetylated peptide, log 2 scale” value (LTALDYHNPAGFNCK(ac)DETEFR (SEQ ID NO: 137), UPF0568 protein C14orf166 [20], C14orf166)?
Its value is 0.41.

And the “light to heavy ratio (L/H ratio) of acetylated peptide, log 2 scale” value (LTEAKPVDK(ac)VK (SEQ ID NO: 221), cDNA FLJ60124 highly similar to Mitochondrial dicarboxylate carrier [142], SLC25A10)?
Its value is −0.50.

And the “L/H ratio of acetylated peptide” value (LTLSALLDGK(ac)NVNAGGHK (SEQ ID NO: 466), Voltage-dependent anion-selective channel protein 1 [266], VDAC1)?
The value was 0.00 log 2.

What about the “L/H ratio of acetylated peptide” value (LVSEK(ac)LASYQAAR (SEQ ID NO: 476), Isoform 2 of Myc proto-oncogene protein [163], MYC) of the same compound?
The value was 0.00 log 2.

What about the “light to heavy ratio (L/H ratio) of acetylated peptide AVLK(ac)FAAATGATPIAGR (SEQ ID NO: 262)” value (Laminin receptor-like protein LAMRL5 [89], SNORA6, RPSAP15, SNORA62, RPSA, drug:DMSO) of the same compound?
Its value is −0.53 log 2.

What about the “light to heavy ratio (L/H ratio) of acetylated peptide SYVSEK(ac)DVTSAK (SEQ ID NO: 628)” value (Leucine-rich PPR motif-containing protein mitochondrial [1332], gene LRPPRC, inhibitor:DMSO) of the same compound?
Its value is 0.00 log 2.

What about the “L/H ratio of acetylated peptide ICCQFDFK(ac)R (SEQ ID NO: 60)” value (MAN2A1 [373], log 2 scale, drug vs DMSO) of the same compound?
The value was −0.69.

And the “L/H ratio of acetylated peptide YLTNQK(ac)NSNSK(ac)NDR (SEQ ID NO: 17)” value (MEAF6 [69:74], log 2 scale, drug vs DMSO)?
Its value is 0.58.

And the “light to heavy ratio (L/H ratio) of acetylated peptide, log 2 scale” value (MKENQK(ac)HIYYITGETK (SEQ ID NO: 169), Isoform 2 of Heat shock protein HSP 90-alpha [611], HSP90AA1)?
The value was −0.46.

What about the “L/H ratio of acetylated peptide TLVLSDK(ac)HSPQK(ac)K (SEQ ID NO: 5)” value (MLL3 [2809:2814], log 2 scale, drug vs DMSO) of the same compound?
The value was 0.67.

What about the “light to heavy ratio (L/H ratio) of acetylated peptide, log 2 scale” value (MPTPVIK(ac)AFGILK (SEQ ID NO: 154), Isoform Mitochondrial of Fumarate hydratase mitochondrial [94], FH) of the same compound?
Its value is −0.55.

And the “L/H ratio of acetylated peptide LNK(ac)DQWEER (SEQ ID NO: 10)” value (MSN [165], log 2 scale, drug vs DMSO)?
The value was −0.38.

What about the “light to heavy ratio (L/H ratio) of acetylated peptide LSLLSK(ac)FR (SEQ ID NO: 564)” value (Mitochondrial trifunctional protein beta subunit (Fragment) [100], gene HADHB, inhibitor:DMSO) of the same compound?
The value was 0.00 log 2.

What about the “light to heavy ratio (L/H ratio) of acetylated peptide EIFQNEK(ac)R (SEQ ID NO: 288)” value (NAD(P) transhydrogenase mitochondrial [70], NNT, drug:DMSO) of the same compound?
The value was 0.55 log 2.

What about the “light to heavy ratio (L/H ratio) of acetylated peptide AISPDK(ac)DNFYFDVK (SEQ ID NO: 284)” value (NAD(P) transhydrogenase mitochondrial [403], NNT, drug:DMSO) of the same compound?
The value was 0.40 log 2.

And the “light to heavy ratio (L/H ratio) of acetylated peptide, log 2 scale” value (NATVGQSVLNIK(ac)YK (SEQ ID NO: 194), Peroxisome biogenesis factor 2 [84], PEX2)?
The value was 0.51.

What about the “light to heavy ratio (L/H ratio) of acetylated peptide, log 2 scale” value (NCMTDLLAK(ac)LEAK (SEQ ID NO: 201), Receptor expression-enhancing protein 5 [25], REEP5) of the same compound?
Its value is 0.49.

— patent publication US20140357512A1, “HISTONE DEACETYLASE (HDAC) BIOMARKERS IN MULTIPLE MYELOMA” (priority 2013, published 2014)
